Assays:
Assay in all cases: Greenhouse herbicidal activity, visual weed control
Format in all cases: in vivo
Conditions in all cases: 20-22 d
[1] = test system: Canada thistle (Cirsium arvense; CIRAR)
Description: (§1) Seeds of the desired test plant species were planted in Sun Gro MetroMix® 306 planting mixture, which typically has a pH of 6.0 to 6.8 and an organic matter content of about 30 percent, in plastic pots with a surface area of 103.2 square centimeters (cm^2). When required to ensure good germination and healthy plants, a fungicide treatment and/or other chemical or physical treatment was applied. The plants were grown for 7-36 days (d) in a greenhouse with an approximate 14 hour (h) photoperiod which was maintained at about 18° C. during the day and 17° C. during the night. Nutrients and water were added on a regular basis and supplemental lighting was provided with overhead metal halide 1000-Watt lamps as necessary. The plants were employed for testing when they reached the second or third true leaf stage.
(§2) An aliquot of formulated Compound 1 (100 grams acid equivalent per liter (g ae/L); emusifiable concentrate (EC)) was placed in a 25 mL glass vial and diluted in a volume of 1.25% (volume per volume (v/v)) aqueous methylated soybean seed oil to obtain a stock solution. The concentrated stock solutions were diluted with an aqueous mixture of 1.25% v/v of aqueous methylated soybean seed oil to provide the appropriate application rates. Compound requirements are based upon a 12 mL application volume at a rate of 187 liters per hectare (L/ha). Compositions of Compound 1 and the photosystem II inhibitor herbicides (propanil, amicarbazone, pyridafol, desmedipham, terbacil, or bromacil) were prepared by adding aliquot or weighted amount of the photosystem II inhibitor into the diluted solutions of Compound 1. The compositions of Compound 1 and the photosystem II inhibitor herbicides were applied to the plant material with an overhead Mandel track sprayer equipped with 8002E nozzles calibrated to deliver 187 L/ha over an application area of 0.503 square meters (m^2) at a spray height of 18 inches (43 centimeters (cm)) above average plant canopy. Control plants were sprayed in the same manner with the solvent blank.
(§3) The efficacy of each of these herbicidal compositions was then evaluated against rapeseed (Brassica napus; BRSNN), shepherd's purse (Capsella bursa-pastoris; CAPBP), common chickweed (Stellaria media; STEME), scentless mayweed (Matricaria inodora; MATIN), corn chamomile (Anthemis arvensis; ANTAR), wild chamomile (Matricaria chamomilla; MATCH), Persian speedwell (Veronica persica; VERPE), ivyleaf speedwell (Veronica hederifolia; VERHE), corn poppy (Papaver rhoeas; PAPRH), kochia (Kochia scoparia; KCHSC), and Canada thistle (Cirsium arvense; CIRAR). The treated plants and control plants were placed in a greenhouse as described above and watered by subirrigation to prevent washoff of the test compounds. After 20-22 d, the condition of the test plants as compared with that of the control plants was determined visually and scored on a scale of 0 to 100 percent where 0 corresponds to no injury and 100 corresponds to complete kill. […]
(§4) The values reported are means.

[2] = test system: Persian speedwell (Veronica persica; VERPE)
Description: as §1, §2, §3, §4

[3] = test system: common chickweed (Stellaria media; STEME)
Description: as §1, §2, §3, §4

[4] = test system: corn chamomile (Anthemis arvensis; ANTAR)
Description: as §1, §2, §3, §4

[5] = test system: corn poppy (Papaver rhoeas; PAPRH)
Description: as §1, §2, §3, §4

[6] = test system: ivyleaf speedwell (Veronica hederifolia; VERHE)
Description: as §1, §2, §3, §4

[7] = test system: kochia (Kochia scoparia; KCHSC)
Description: as §1, §2, §3, §4

[8] = test system: rapeseed (Brassica napus; BRSNN)
Description: as §1, §2, §3, §4

[9] = test system: scentless mayweed (Matricaria inodora; MATIN)
Description: as §1, §2, §3, §4

[10] = test system: shepherd's purse (Capsella bursa-pastoris; CAPBP)
Description: as §1, §2, §3, §4

[11] = test system: wild chamomile (Matricaria chamomilla; MATCH)
Description: as §1, §2, §3, §4

CC(C)c1nn(C(=O)NC(C)(C)C)c(=O)n1N [Amicarbazone, amicarbazone]
Obs (% visual control) ([1]; Amicarbazone 300 g/ha alone): 50%
Obs (% visual control) ([2]; Amicarbazone 300 g/ha alone): 20%
Obs (% visual control) ([3]; Amicarbazone 300 g/ha alone): 20%
Obs (% visual control) ([4]; Amicarbazone 300 g/ha alone): 30%
Obs (% visual control) ([5]; PAPRH, Amicarbazone 300 g/ha alone): 30%
Obs (% visual control) ([6]; Amicarbazone 300 g/ha alone): 50%
Obs (% visual control) ([7]; Amicarbazone 300 g/ha alone): 50%
Obs (% visual control) ([8]; Amicarbazone 300 g/ha alone): 60%
Obs (% visual control) ([9]; Amicarbazone 300 g/ha alone): 30%
Obs (% visual control) ([10]; Amicarbazone 300 g/ha alone): 50%
Obs (% visual control) ([11]; Amicarbazone 300 g/ha alone): 95%

CCOC(=O)Nc1cccc(OC(=O)Nc2ccccc2)c1 [Desmedipham, desmedipham]
Obs (% visual control) ([1]; Desmedipham 163 g/ha alone): 0%
Obs (% visual control) ([2]; Desmedipham 163 g/ha alone): 10%
Obs (% visual control) ([3]; Desmedipham 163 g/ha alone): 0%
Obs (% visual control) ([4]; Desmedipham 163 g/ha alone): 10%
Obs (% visual control) ([5]; PAPRH, Desmedipham 163 g/ha alone): 0%
Obs (% visual control) ([6]; Desmedipham 163 g/ha alone): 10%
Obs (% visual control) ([7]; Desmedipham 163 g/ha alone): 0%
Obs (% visual control) ([8]; Desmedipham 163 g/ha alone): 15%
Obs (% visual control) ([9]; Desmedipham 163 g/ha alone): 10%
Obs (% visual control) ([10]; Desmedipham 163 g/ha alone): 0%
Obs (% visual control) ([11]; Desmedipham 163 g/ha alone): 10%

CCC(C)n1c(=O)[nH]c(C)c(Br)c1=O (stereo not shown) [Bromacil, bromacil]
Obs (% visual control) ([1]; Bromacil 900 g/ha alone): 10%
Obs (% visual control) ([2]; Bromacil 900 g/ha alone): 10%
Obs (% visual control) ([3]; Bromacil 900 g/ha alone): 100%
Obs (% visual control) ([4]; Bromacil 900 g/ha alone): 30%
Obs (% visual control) ([5]; R-PAPRH, Bromacil 900 g/ha alone): 100%
Obs (% visual control) ([6]; Bromacil 900 g/ha alone): 30%
Obs (% visual control) ([7]; Bromacil 900 g/ha alone): 97%
Obs (% visual control) ([8]; Bromacil 900 g/ha alone): 65%
Obs (% visual control) ([9]; Bromacil 900 g/ha alone): 100%
Obs (% visual control) ([10]; Bromacil 900 g/ha alone): 65%
Obs (% visual control) ([11]; Bromacil 900 g/ha alone): 100%

O=c1cc(Cl)[nH]nc1-c1ccccc1 [Pyridafol, pyridafol]
Obs (% visual control) ([1]; Pyridafol 195 g/ha alone): 0%
Obs (% visual control) ([2]; Pyridafol 195 g/ha alone): 0%
Obs (% visual control) ([3]; Pyridafol 195 g/ha alone): 0%
Obs (% visual control) ([4]; Pyridafol 195 g/ha alone): 0%
Obs (% visual control) ([5]; PAPRH, Pyridafol 195 g/ha alone): 0%
Obs (% visual control) ([6]; Pyridafol 195 g/ha alone): 0%
Obs (% visual control) ([7]; Pyridafol 195 g/ha alone): 0%
Obs (% visual control) ([8]; Pyridafol 195 g/ha alone): 5%
Obs (% visual control) ([9]; Pyridafol 195 g/ha alone): 10%
Obs (% visual control) ([10]; Pyridafol 195 g/ha alone): 0%
Obs (% visual control) ([11]; Pyridafol 195 g/ha alone): 0%

Cc1[nH]c(=O)n(C(C)(C)C)c(=O)c1Cl [Terbacil, terbacil]
Obs (% visual control) ([1]; Terbacil 113 g/ha alone): 30%
Obs (% visual control) ([2]; Terbacil 113 g/ha alone): 30%
Obs (% visual control) ([3]; Terbacil 113 g/ha alone): 10%
Obs (% visual control) ([4]; Terbacil 113 g/ha alone): 0%
Obs (% visual control) ([5]; PAPRH, Terbacil 113 g/ha alone): 10%
Obs (% visual control) ([6]; Terbacil 113 g/ha alone): 60%
Obs (% visual control) ([7]; Terbacil 113 g/ha alone): 0%
Obs (% visual control) ([8]; Terbacil 113 g/ha alone): 10%
Obs (% visual control) ([9]; Terbacil 113 g/ha alone): 10%
Obs (% visual control) ([10]; Terbacil 113 g/ha alone): 30%
Obs (% visual control) ([11]; Terbacil 113 g/ha alone): 60%

Nc1c(F)c(-c2ccc3cc[nH]c3c2F)nc(C(=O)O)c1Cl [Compound 1]
Obs (% visual control) ([1]; Compound 1 5 g/ha alone): 10%
Obs (% visual control) ([1]; Compound 1 10 g/ha alone): 30%
Obs (% visual control) ([2]; Compound 1 5 g/ha alone): 70%
Obs (% visual control) ([2]; Compound 1 10 g/ha alone): 85%
Obs (% visual control) ([3]; Compound 1 5 g/ha alone): 65%
Obs (% visual control) ([3]; Compound 1 10 g/ha alone): 70%
Obs (% visual control) ([4]; Compound 1 5 g/ha alone): 10%
Obs (% visual control) ([4]; Compound 1 10 g/ha alone): 40%
Obs (% visual control) ([5]; PAPRH (R-PAPRH in Tables 1 and 6), Compound 1 5 g/ha alone): 75%
Obs (% visual control) ([5]; PAPRH (R-PAPRH in Tables 1 and 6), Compound 1 10 g/ha alone): 80%
Obs (% visual control) ([6]; Compound 1 5 g/ha alone): 75%
Obs (% visual control) ([6]; Compound 1 10 g/ha alone): 75%
Obs (% visual control) ([7]; Compound 1 5 g/ha alone): 50%
Obs (% visual control) ([7]; Compound 1 10 g/ha alone): 55%
Obs (% visual control) ([8]; Compound 1 5 g/ha alone): 40%
Obs (% visual control) ([8]; Compound 1 10 g/ha alone): 50%
Obs (% visual control) ([9]; Compound 1 5 g/ha alone): 10%
Obs (% visual control) ([9]; Compound 1 10 g/ha alone): 60%
Obs (% visual control) ([10]; Compound 1 5 g/ha alone): 65%
Obs (% visual control) ([10]; Compound 1 10 g/ha alone): 70%
Obs (% visual control) ([11]; Compound 1 5 g/ha alone): 10%
Obs (% visual control) ([11]; Compound 1 10 g/ha alone): 10%

CCC(=O)Nc1ccc(Cl)c(Cl)c1 [Propanil, propanil]
Obs (% visual control) ([1]; Propanil 840 g/ha alone): 10%
Obs (% visual control) ([2]; Propanil 840 g/ha alone): 10%
Obs (% visual control) ([3]; Propanil 840 g/ha alone): 0%
Obs (% visual control) ([4]; Propanil 840 g/ha alone): 50%
Obs (% visual control) ([5]; R-PAPRH, Propanil 840 g/ha alone): 20%
Obs (% visual control) ([6]; Propanil 840 g/ha alone): 10%
Obs (% visual control) ([7]; Propanil 840 g/ha alone): 10%
Obs (% visual control) ([8]; Propanil 840 g/ha alone): 10%
Obs (% visual control) ([9]; Propanil 840 g/ha alone): 0%
Obs (% visual control) ([10]; Propanil 840 g/ha alone): 50%
Obs (% visual control) ([11]; Propanil 840 g/ha alone): 10%

— US20190110473A1, “SYNERGISTIC WEED CONTROL FROM APPLICATIONS OF PYRIDINE CARBOXYLIC ACID HERBICIDES AND PHOTOSYSTEM II INHIBITORS” (Dow AgroSciences LLC, priority 2017, published 2019)
